Experiments:
[1] = system: ataxia telangiectasia patients; experiment: Case studies, ataxia telangiectasia patients (SARA, SCAFI, video-oculography); assay type: in vivo, human; settings: for 8MWT: baseline 8.95 sec; for PATA: baseline 14.5; for 9HPTND: baseline 71.2 sec; for 9HPTD: baseline 85.38 sec
Source text: For example, to evaluate overall neurological status, mDRS, a four-domain scale (ambulation, manipulation, language and swallowing), may be applied. Cerebellar function may be evaluated using SARA, an eight-item clinical rating scale (gait, stance, sitting, speech, fine motor function and taxis; range 0-40, where 0 is the best neurological status and 40 the worst), and SCAFI, comprising the 8-m-Walking-Time (8 MW; performed by having patients walking twice as quickly as possible from one line to another excluding turning), 9-Hole-Peg-Test (9HPT) and the number of “PATA” repetitions over 10 s. Subjective impairment and quality of life may be evaluated using the EQ-5D-5L questionnaire and VAS. To assess ocular motor function, 3-dimensional videooculography (EyeSeeCam) may be used to measure the peak velocity of saccades, gain of smooth pursuit, peak slow phase velocity of gaze-evoked nystagmus (gaze-holding function), peak slow phase velocity of optokinetic nystagmus, and gain of horizontal vestibulo-ocular reflex. To evaluate the cognitive state, WAIS-R or WISC-IV, and MoCA, assessing different cognitive domains, including attention and concentration, executive functions, memory, language, visuoconstructional skills, conceptual thinking, calculations, and orientation with a maximum of 30 points and a cut-off score of 26, may be used. The skilled person will know how to perform these and other such tests.
After one month of treatment, the patient was re-evaluated. […] Examination indicated a Scale for Assessment and Rating of Ataxia (SARA) score of 15.5/40. Results from the patient's Spinocerebellar Ataxia Functional Index (SCAFI) analysis were: • Mean 8-meters Walking Test (8 MW): 18.5 s • MW 9-Hole Pegboard Test Dominant (9HPTD) (right): 77.9 s • MW 9-Hole Pegboard Test Non-Dominant (9HPTND): 101.3 s • MW PATA Word Test: 13 • Visual analog scale (as evaluated by the patient): 85
After one month of treatment, the patient was re-evaluated. […] Examination indicated a Scale for Assessment and Rating of Ataxia (SARA) score of 23.5/40.
After slightly over 7 months of treatment, the patient was re-evaluated. […] Examination indicated a Scale for Assessment and Rating of Ataxia (SARA) score of 21.5/40.
After slightly over 1 month of treatment, the patient was re-evaluated. […] The patient also reported that drinking was easier and no longer needed a straw. […] Examination indicated a Scale for Assessment and Rating of Ataxia (SARA) score of 18.5/40.
After about 1 month of treatment, the patient was re-evaluated. […] On medication, they were able to walk with only holding the caregiver's hand.
The patient was evaluated after one month and six months of treatment, respectively. […] The patient, however, was suffering from anxiety, which would be expected to negatively influence the response.

[2] = system: fibroblast cell line from an NPC patient; experiment: Relative lysosomal volume via LysoTracker, NPC fibroblasts; assay type: cell-based, human; settings: 1 mM
Method: A fibroblast cell line from an NPC patient was treated for 3 days with N-acetyl-DL-leucine (1 mM) and relative lysosomal volume was quantified via LysoTracker, a fluorescent dye that accumulates in acidic organelles. Increased LysoTracker fluorescence is indicative of an increase in lysosomal size and/or number, and is a hallmark of NPC cells.

[3] = ataxia telangiectasia Patient 1, after one month
[4] = ataxia telangiectasia Patient 1, after one month, Center
[5] = ataxia telangiectasia Patient 1, after one month, Down
[6] = ataxia telangiectasia Patient 1, after one month, Left
[7] = ataxia telangiectasia Patient 1, after one month, Right
[8] = ataxia telangiectasia Patient 1, after one month, Up
[9] = ataxia telangiectasia Patient 2, after one month
[10] = ataxia telangiectasia Patient 2, after one month, Center
[11] = ataxia telangiectasia Patient 2, after one month, Down
[12] = ataxia telangiectasia Patient 2, after one month, Left
[13] = ataxia telangiectasia Patient 2, after one month, Right
[14] = ataxia telangiectasia Patient 2, after one month, Up
[15] = ataxia telangiectasia Patient 3, after slightly over 7 months
[16] = ataxia telangiectasia Patient 3, after slightly over 7 months, Center
[17] = ataxia telangiectasia Patient 3, after slightly over 7 months, Down
[18] = ataxia telangiectasia Patient 3, after slightly over 7 months, Left
[19] = ataxia telangiectasia Patient 3, after slightly over 7 months, Right
[20] = ataxia telangiectasia Patient 4, after slightly over 1 month
[21] = ataxia telangiectasia Patient 4, after slightly over 1 month, Center
[22] = ataxia telangiectasia Patient 4, after slightly over 1 month, Down
[23] = ataxia telangiectasia Patient 4, after slightly over 1 month, Left
[24] = ataxia telangiectasia Patient 4, after slightly over 1 month, Right
[25] = ataxia telangiectasia Patient 5, after about 1 month
[26] = ataxia telangiectasia Patient 5, after about 1 month, Center
[27] = ataxia telangiectasia Patient 5, after about 1 month, Down
[28] = ataxia telangiectasia Patient 5, after about 1 month, Left
[29] = ataxia telangiectasia Patient 5, after about 1 month, Right
[30] = ataxia telangiectasia Patient 5, after about 1 month, Up
[31] = ataxia telangiectasia Patient 5, after almost 7 months
[32] = ataxia telangiectasia Patient 5, after slightly over a year
[33] = ataxia telangiectasia Patient 6, after one month
[34] = ataxia telangiectasia Patient 6, after six months

## CC(=O)NC(CC(C)C)C(=O)O (racemic) [acetyl-DL-leucine]
[1]; [3]
  Caregivers' report: improvement of speech and gait
  Video-oculography (summary): significant improvement of fixation stability and decrease of intensity of downbeat-nystagmus
[1]; [4]
  Slow phase velocity of the gaze-holding nystagmus, Horizontal: 0.4
  Slow phase velocity of the gaze-holding nystagmus, Vertical: 4.77
[1]; [5]
  Slow phase velocity of the gaze-holding nystagmus, Horizontal: −0.44
  Slow phase velocity of the gaze-holding nystagmus, Vertical: 5.29
[1]; [6]
  Slow phase velocity of the gaze-holding nystagmus, Horizontal: 8.2
  Slow phase velocity of the gaze-holding nystagmus, Vertical: 8.85
[1]; [7]
  Slow phase velocity of the gaze-holding nystagmus, Horizontal: −0.95
  Slow phase velocity of the gaze-holding nystagmus, Vertical: 4.83
[1]; [8]
  Slow phase velocity of the gaze-holding nystagmus, Horizontal: 0.72
  Slow phase velocity of the gaze-holding nystagmus, Vertical: 2.67
[1]; ataxia telangiectasia Patient 1, after one month, before 12.5
  PATA Word Test: 13
[1]; ataxia telangiectasia Patient 1, after one month, before 21.8 s
  Mean 8-meters Walking Test (8 MW): 18.5 s
[1]; ataxia telangiectasia Patient 1, after one month, before 90.2 s
  9-Hole Pegboard Test Dominant (9HPTD) (right): 77.9 s
[1]; ataxia telangiectasia Patient 1, after one month, before 99
  Visual analog scale (as evaluated by the patient): 85
[1]; ataxia telangiectasia Patient 1, after one month, before 125.8 s
  9-Hole Pegboard Test Non-Dominant (9HPTND): 101.3 s
[1]; [9]
  Caregivers' report: improvement of fine motor function, hand tremor, and speech
  Mean 8-meters Walking Test (8 MW): not able to perform without support
  Video-oculography (summary): improvement of fixation stability and significant improvement of downbeat-nystagmus intensity
[1]; [10]
  Slow phase velocity of the gaze-holding nystagmus, Horizontal: −1.45
  Slow phase velocity of the gaze-holding nystagmus, Vertical: 5.6
[1]; [11]
  Slow phase velocity of the gaze-holding nystagmus, Horizontal: −2.5
  Slow phase velocity of the gaze-holding nystagmus, Vertical: 4.69
[1]; [12]
  Slow phase velocity of the gaze-holding nystagmus, Horizontal: 3.58
  Slow phase velocity of the gaze-holding nystagmus, Vertical: 7
[1]; [13]
  Slow phase velocity of the gaze-holding nystagmus, Horizontal: −3.45
  Slow phase velocity of the gaze-holding nystagmus, Vertical: 6.56
[1]; [14]
  Slow phase velocity of the gaze-holding nystagmus, Horizontal: −0.51
  Slow phase velocity of the gaze-holding nystagmus, Vertical: 3.15
[1]; ataxia telangiectasia Patient 2, after one month, before 13.5
  PATA Word Test: 14
[1]; ataxia telangiectasia Patient 2, after one month, before 45
  Visual analog scale (as evaluated by the patient): 80
[1]; ataxia telangiectasia Patient 2, after one month, before 299.2 s
  9-Hole Pegboard Test Non-Dominant (9HPTND): 300 s
[1]; ataxia telangiectasia Patient 2, after one month, before 300 s
  9-Hole Pegboard Test Dominant (9HPTD) (right): 300 s
[1]; [15]
  Caregivers' and patient's report: general improvement of well-being
  Mean 8-meters Walking Test (8 MW): not able to perform
  Video-oculography (summary): significant improvement of fixation stability and decrease of intensity of gaze-holding nystagmus at all positions
[1]; [16]
  Slow phase velocity of the gaze-holding nystagmus, Horizontal: −0.1 °/s
  Slow phase velocity of the gaze-holding nystagmus, Vertical: 0.4 °/s
[1]; [17]
  Slow phase velocity of the gaze-holding nystagmus, Horizontal: −0.6 °/s
  Slow phase velocity of the gaze-holding nystagmus, Vertical: 1.2 °/s
[1]; [18]
  Slow phase velocity of the gaze-holding nystagmus, Horizontal: 1.7 °/s
  Slow phase velocity of the gaze-holding nystagmus, Vertical: 0.1 °/s
[1]; [19]
  Slow phase velocity of the gaze-holding nystagmus, Horizontal: −4.2 °/s
  Slow phase velocity of the gaze-holding nystagmus, Vertical: 1.7 °/s
[1]; ataxia telangiectasia Patient 3, after slightly over 7 months, before 14
  PATA Word Test: 10
[1]; ataxia telangiectasia Patient 3, after slightly over 7 months, before 80
  Visual analog scale (as evaluated by the patient): 80
[1]; ataxia telangiectasia Patient 3, after slightly over 7 months, before 150 s
  9-Hole Pegboard Test Dominant (9HPTD) (right): 124.5 s
[1]; ataxia telangiectasia Patient 3, after slightly over 7 months, before 161.6 s
  9-Hole Pegboard Test Non-Dominant (9HPTND): 147.5 s
[1]; [20]
  Mean 8-meters Walking Test (8 MW): not able to perform
  Patient's and parent's report: improvement in handwriting
  Video-oculography (summary): general improvement of fixation stability and decrease of intensity of spontaneous and gaze-holding nystagmus at all positions
[1]; [21]
  Slow phase velocity of the gaze-holding nystagmus, Horizontal: −0.2 °/s
  Slow phase velocity of the gaze-holding nystagmus, Vertical: 4.8 °/s
[1]; [22]
  Slow phase velocity of the gaze-holding nystagmus, Horizontal: −0.7 °/s
  Slow phase velocity of the gaze-holding nystagmus, Vertical: −2.3 °/s
[1]; [23]
  Slow phase velocity of the gaze-holding nystagmus, Horizontal: −0.8 °/s
  Slow phase velocity of the gaze-holding nystagmus, Vertical: 1.9 °/s
[1]; [24]
  Slow phase velocity of the gaze-holding nystagmus, Horizontal: −1 °/s
  Slow phase velocity of the gaze-holding nystagmus, Vertical: 0.3 °/s
[1]; ataxia telangiectasia Patient 4, after slightly over 1 month, before 14
  PATA Word Test: 15.5
[1]; ataxia telangiectasia Patient 4, after slightly over 1 month, before 52.3 s
  9-Hole Pegboard Test Non-Dominant (9HPTND): 101.7 s
[1]; ataxia telangiectasia Patient 4, after slightly over 1 month, before 70
  Visual analog scale (as evaluated by the patient): 70
[1]; ataxia telangiectasia Patient 4, after slightly over 1 month, before 124.5 s
  9-Hole Pegboard Test Dominant (9HPTD) (right): 93.5 s
[1]; ataxia telangiectasia Patient 5, 5 g/day, after about 1 month
  Mother's report: significant improvement of stability of the gait
[1]; [25]
  Mean 8-meters Walking Test (8 MW): not able to walk without support
  Weight gained: 1.5 kg
[1]; [26]
  Slow-phase velocity (SPV) of fixation and gaze-holding nystagmus, Horizontal: 0.79 °/s
  Slow-phase velocity (SPV) of fixation and gaze-holding nystagmus, Vertical: 3.54 °/s
[1]; [27]
  Slow-phase velocity (SPV) of fixation and gaze-holding nystagmus, Horizontal: 0.62 °/s
  Slow-phase velocity (SPV) of fixation and gaze-holding nystagmus, Vertical: 1.08 °/s
[1]; [28]
  Slow-phase velocity (SPV) of fixation and gaze-holding nystagmus, Horizontal: 1.22 °/s
  Slow-phase velocity (SPV) of fixation and gaze-holding nystagmus, Vertical: 2.53 °/s
[1]; [29]
  Slow-phase velocity (SPV) of fixation and gaze-holding nystagmus, Horizontal: 1.17 °/s
  Slow-phase velocity (SPV) of fixation and gaze-holding nystagmus, Vertical: 2.36 °/s
[1]; [30]
  Slow-phase velocity (SPV) of fixation and gaze-holding nystagmus, Horizontal: 0.33 °/s
  Slow-phase velocity (SPV) of fixation and gaze-holding nystagmus, Vertical: 1.71 °/s
[1]; ataxia telangiectasia Patient 5, after about 1 month, before 6
  PATA Word Test: 7.5
[1]; ataxia telangiectasia Patient 5, after about 1 month, before 90
  Visual analog scale (as evaluated by the patient): 80
[1]; ataxia telangiectasia Patient 5, after about 1 month, before 102.7 s
  9-Hole Pegboard Test Dominant (9HPTD) (right): 103.6 s
[1]; ataxia telangiectasia Patient 5, after about 1 month, before 116.8 s
  9-Hole Pegboard Test Non-Dominant (9HPTND): 88.8 s
[1]; [31]
  9-Hole Pegboard Test Dominant (9HPTD) (right): 92.4 s
  9-Hole Pegboard Test Non-Dominant (9HPTND): 98.3 s
  Further weight gained: 3 kg
  Mother's report: significantly more stable gait
  PATA Word Test: 11
  Visual analog scale (as evaluated by the patient): 100
[1]; ataxia telangiectasia Patient 5, after almost 7 months, holding of the hand
  Mean 8-meters Walking Test (8 MW): 15.3 s
[1]; [32]
  9-Hole Pegboard Test Dominant (9HPTD) (right): 95.6 s
  9-Hole Pegboard Test Non-Dominant (9HPTND): 127.6 s
  Clinical observation: improved social interaction, activity, and agility
  PATA Word Test: 14.5
  Visual analog scale (as evaluated by the patient): 95
[1]; ataxia telangiectasia Patient 5, after slightly over a year, able to walk by themself, parent held hand
  Mean 8-meters Walking Test (8 MW): 13.9 s
[1]; ataxia telangiectasia Patient 5, after slightly over a year, suspected infantile migraine
  Adverse observation: repeatedly occuring frontal localized pain with vomiting in the morning
[1]; [33]
  Clinical observation: increased fine motor skills with reduced hand tremor, improved postural stability and gait, increased enunciation, and increased self-confidence
  8MWT: 8.45 s
  PATA: 15.5
  9HPTND: 70.39 s
  9HPTD: 81.95 s
[1]; [34]
  Clinical observation: stable general conditions, stable gait and stance, and improved handwriting
  8MWT: 7.53 s
  PATA: 13
  9HPTND: 80.32 s
  9HPTD: 136.27 s
[1]; ataxia telangiectasia Patient 6, after six months, baseline 11/40
  SARA: 11/40
[2]; fibroblasts from NPC patient of mild clinical severity
  LysoTracker fluorescence (lysosomal volume): significant decrease in LysoTracker fluorescence
[2]; fibroblasts from additional NPC patients of variable clinical severity, 72 hours
  LysoTracker fluorescence (lysosomal volume): replicated
